According to patent US20060079453A1, “Hla binding peptides and their uses” (priority 2002, published 2006):
Values joined by “and” are separate entries in the source; they are usually repeats but may differ in a detail not shown here. Identical values can stand only once. Like-named read-outs stand apart in the source and are kept apart here. No end group written: not given here.

What was measured:
H-2 Db = H-2 Db (Mus musculus, UniProt P01899); experiment: biochemical; assay type: binding, murine; conditions: Db
Chain of H-2 Db (P61769 21-119): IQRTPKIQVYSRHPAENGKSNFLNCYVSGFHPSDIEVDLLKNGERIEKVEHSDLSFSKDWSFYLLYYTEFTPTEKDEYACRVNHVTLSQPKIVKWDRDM
Chain of H-2 Db (P01899 25-362): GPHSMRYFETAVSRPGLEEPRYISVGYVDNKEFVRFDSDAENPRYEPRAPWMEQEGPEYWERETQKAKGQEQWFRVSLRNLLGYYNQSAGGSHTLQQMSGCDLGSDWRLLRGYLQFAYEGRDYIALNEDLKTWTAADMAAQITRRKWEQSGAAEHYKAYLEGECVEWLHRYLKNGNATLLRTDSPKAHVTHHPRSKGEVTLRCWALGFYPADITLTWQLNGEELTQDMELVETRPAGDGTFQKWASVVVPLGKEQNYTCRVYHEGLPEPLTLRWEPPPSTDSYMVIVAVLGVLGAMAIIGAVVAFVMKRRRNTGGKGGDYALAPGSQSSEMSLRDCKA

HLA-A*2301 = HLA-A*2301 (Homo sapiens, UniProt P04439, D101N/D140Y/D185E/E176V/E190D/F33S/G103R/G107R/H175R/I119L/I121M/I306V/K168Q/K335N/L105A/L300P/N151K/N90K/P307H/Q86E/Q94H/R106L/R138H/R89G/T104I/T345S/V100E/W191G/Y123F); experiment: biochemical; assay type: binding
HLA-A*0101 = HLA-A*0101 (Homo sapiens, UniProt P04439, A114D/A174V/A182V/D101N/D185E/E176A/E190D/L180R/Q94H/R68K/S129P/T187R/V100A/V91M/W191G); experiment: biochemical; assay type: binding; conditions: Binding affinity to A*0101 (expressed as an IC50)
HLA-A*3002 = HLA-A*3002 (Homo sapiens, UniProt P04439, D101N/D140H/D185E/E176R/F33S/G80R/H175R/K168Q/Q94H/R138E/R41S/V100E); experiment: biochemical; assay type: binding
HLA-A*2902 = HLA-A*2902 (Homo sapiens, UniProt P04439, A270S/D101N/D185E/E176V/E277Q/E87Q/F33T/G231S/H175R/I121M/I218V/I322F/K168Q/L300P/L318F/M331R/P208A/P217A/Q86L/T323A/T345S/V100A/V358M); experiment: MHC molecular binding / Capture assay, IC50: A*2902
HLA-A*2402 = HLA-A*2402 (Homo sapiens, UniProt P04439, D101N/D140Y/D185E/E176V/E190D/F33S/G103R/G107R/I119L/I121M/I306V/K335N/L105A/L180Q/L300P/N151K/N90K/Q86E/Q94H/R106L/R138H/R89G/T104I/T345S/V100E/W191G/Y123F); experiment: MHC molecular binding / Capture assay, IC50: A*2402
[1] = Binding affinity to A*3002 (expressed as an IC50)
[2] = Binding affinity to A*2902 (expressed as an IC50)

## CSCC[C@H](NC(=O)[C@H](C)NC(=O)[C@H](C)NC(=O)[C@H](C)NC(=O)[C@H](CC(N)=O)NC(=O)[C@H](C)NC(=O)[C@H](C)NC(=O)[C@H](C)NC(=O)[C@H](C)NC(=O)[C@H](C)NC(=O)[C@H](C)N)C(=O)O
H-2 Db
  IC50: 257 nM

## CSCC[C@H](NC(=O)[C@H](C)NC(=O)[C@H](C)NC(=O)[C@H](C)NC(=O)[C@H](C)NC(=O)[C@H](Cc1ccc(O)cc1)NC(=O)[C@H](C)NC(=O)[C@H](C)NC(=O)[C@H](C)NC(=O)[C@H](C)N)C(=O)O
H-2 Db
  IC50: > 44000 nM

## CSCC[C@H](NC(=O)[C@H](C)NC(=O)[C@H](C)NC(=O)[C@H](Cc1ccc(O)cc1)NC(=O)[C@H](C)NC(=O)[C@H](C)NC(=O)[C@H](C)NC(=O)[C@H](C)N)C(=O)O
H-2 Db
  IC50: > 44000 nM

## CC(C)[C@H](NC(=O)[C@@H](NC(=O)[C@H](CC(=O)O)NC(=O)[C@H](CO)NC(=O)[C@H](CC(N)=O)NC(=O)[C@@H](NC(=O)CNC(=O)[C@H](CS)NC(=O)[C@@H](N)Cc1ccccc1)C(C)C)[C@@H](C)O)C(=O)O
H-2 Db
  IC50: 206 nM and 166 nM

## CC[C@H](C)[C@H](NC(=O)[C@H](Cc1ccccc1)NC(=O)[C@H](CCC(N)=O)NC(=O)CNC(=O)[C@H](CC(N)=O)NC(=O)[C@H](CCC(N)=O)NC(=O)[C@@H]1CCCN1C(=O)[C@H](CCC(N)=O)NC(=O)[C@@H](N)Cc1ccccc1)C(=O)N[C@@H](Cc1c[nH]cn1)C(=O)N[C@@H](Cc1ccccc1)C(=O)N[C@@H](Cc1ccc(O)cc1)C(=O)O
H-2 Db
  IC50: 280 nM

## CC[C@H](C)[C@H](N)C(=O)N[C@@H](CO)C(=O)N[C@@H](CCC(=O)O)C(=O)N[C@@H](Cc1ccc(O)cc1)C(=O)N[C@@H](CCCNC(=N)N)C(=O)N[C@@H](Cc1c[nH]cn1)C(=O)N[C@@H](Cc1ccc(O)cc1)C(=O)N[C@@H](CC(N)=O)C(=O)N[C@@H](Cc1ccc(O)cc1)C(=O)O
HLA-A*2301
  IC50: > 23600 nM
HLA-A*0101
  IC50: 25 nM
HLA-A*3002; [1]
  IC50: 32 nM

## CC[C@H](C)[C@H](N)C(=O)N[C@H](C(=O)N[C@@H](Cc1ccc(O)cc1)C(=O)N[C@@H](CCCCN)C(=O)N[C@@H](CC(N)=O)C(=O)N[C@@H](CO)C(=O)N[C@H](C(=O)N[C@@H](Cc1c[nH]c2ccccc12)C(=O)N[C@H](C(=O)O)C(C)C)[C@@H](C)O)[C@@H](C)O
H-2 Db
  IC50: 409 nM and 276 nM

## CC(C)C[C@H](NC(=O)[C@@H](NC(=O)[C@@H](N)CCCCN)[C@@H](C)O)C(=O)N[C@@H](Cc1ccc(O)cc1)C(=O)N[C@@H](CCC(N)=O)C(=O)N[C@@H](CO)C(=O)N[C@@H](CC(N)=O)C(=O)N1CCC[C@H]1C(=O)N[C@@H](Cc1ccc(O)cc1)C(=O)O
HLA-A*0101
  IC50: 6910 nM
HLA-A*3002; [1]
  IC50: 35 nM
HLA-A*2902; [2]
  IC50: 1700 nM

## CC[C@H](C)[C@H](NC(=O)[C@@H](NC(=O)[C@@H]1CCCN1C(=O)[C@H](Cc1c[nH]cn1)NC(=O)[C@H](CO)NC(=O)[C@H](Cc1ccc(O)cc1)NC(=O)[C@@H](N)CC(C)C)[C@@H](C)CC)C(=O)N[C@@H](CC(C)C)C(=O)NCC(=O)N[C@@H](Cc1ccccc1)C(=O)O
HLA-A*2402
  IC50: 2.6 nM
HLA-A*2301
  IC50: 5.4 nM
HLA-A*0101
  IC50: 3170 nM

## CC[C@H](C)[C@H](NC(=O)[C@@H](NC(=O)[C@@H](NC(=O)[C@H](Cc1ccccc1)NC(=O)[C@H](C)NC(=O)[C@H](CCCNC(=N)N)NC(=O)CNC(=O)[C@@H]1CCCN1C(=O)CNC(=O)[C@@H](N)CCCNC(=N)N)C(C)C)[C@@H](C)O)C(=O)O
H-2 Db
  IC50: 22000 nM

## C[C@H](NC(=O)[C@H](CCC(N)=O)NC(=O)[C@@H](N)CCCNC(=N)N)C(=O)N[C@@H](CCCCN)C(=O)N[C@@H](CCC(N)=O)C(=O)N[C@@H](Cc1c[nH]cn1)C(=O)N[C@H](C(=O)N[C@@H](CS)C(=O)N[C@@H](Cc1ccc(O)cc1)C(=O)O)[C@@H](C)O
HLA-A*0101
  IC50: > 135000 nM
HLA-A*3002; [1]
  IC50: 108 nM
HLA-A*2902; [2]
  IC50: 155000 nM

## CC[C@H](C)[C@H](NC(=O)[C@H](CC(=O)O)NC(=O)[C@H](CCC(N)=O)NC(=O)[C@@H](N)CCCNC(=N)N)C(=O)N[C@@H](CC(C)C)C(=O)N[C@@H](CC(=O)O)C(=O)N[C@@H](CC(C)C)C(=O)N[C@@H](Cc1c[nH]c2ccccc12)C(=O)N[C@H](C(=O)N[C@@H](Cc1ccc(O)cc1)C(=O)O)C(C)C
HLA-A*0101
  IC50: 9000 nM
HLA-A*3002; [1]
  IC50: 95 nM
HLA-A*2902; [2]
  IC50: 13900 nM

## CC[C@H](C)[C@H](NC(=O)[C@H](CCC(=O)O)NC(=O)[C@@H]1CCCN1C(=O)[C@@H]1CCCN1C(=O)[C@@H](NC(=O)[C@H](CC(N)=O)NC(=O)[C@H](CO)NC(=O)[C@@H]1CCCN1C(=O)CNC(=O)[C@@H](N)CO)[C@@H](C)O)C(=O)O
H-2 Db
  IC50: 8.1 nM

## CC[C@H](C)[C@H](NC(=O)[C@H](CCCCN)NC(=O)[C@H](CCC(=O)O)NC(=O)[C@H](CC(C)C)NC(=O)[C@@H](N)[C@@H](C)O)C(=O)N[C@H](C(=O)N[C@@H](CC(N)=O)C(=O)N[C@H](C(=O)N[C@@H](CCC(=O)O)C(=O)N[C@@H](CC(C)C)C(=O)N[C@@H](Cc1ccc(O)cc1)C(=O)O)[C@@H](C)O)[C@@H](C)O
HLA-A*0101
  IC50: 17 nM
HLA-A*3002; [1]
  IC50: 3900 nM
HLA-A*2902; [2]
  IC50: 8400 nM

## CC(C)C[C@H](NC(=O)CNC(=O)[C@@H](NC(=O)[C@H](CC(N)=O)NC(=O)[C@@H](NC(=O)[C@H](CC(C)C)NC(=O)[C@H](CCCCN)NC(=O)[C@H](CCC(=O)O)NC(=O)[C@H](CC(C)C)NC(=O)[C@@H](N)[C@@H](C)O)[C@@H](C)O)[C@@H](C)O)C(=O)N[C@@H](Cc1ccc(O)cc1)C(=O)O
HLA-A*0101
  IC50: 77 nM and 23 nM
HLA-A*3002
  IC50: 92 nM
HLA-A*2902
  IC50: 991 nM
HLA-A*2902; [2]
  IC50: 5500 nM

## CC(C)C[C@H](NC(=O)[C@H](CC(=O)O)NC(=O)[C@H](CCC(N)=O)NC(=O)[C@@H](N)[C@@H](C)O)C(=O)N[C@H](C(=O)N[C@@H](CCC(N)=O)C(=O)N[C@@H](CCC(=O)O)C(=O)N[C@@H](CCCCN)C(=O)N[C@@H](Cc1ccc(O)cc1)C(=O)O)C(C)C
HLA-A*0101
  IC50: 57 nM
HLA-A*3002
  IC50: 3800 nM
HLA-A*2902
  IC50: 33300 nM

## CC[C@H](C)[C@H](NC(=O)[C@H](Cc1c[nH]cn1)NC(=O)[C@H](Cc1ccccc1)NC(=O)[C@@H](N)Cc1c[nH]c2ccccc12)C(=O)N[C@@H](CO)C(=O)N[C@@H](CS)C(=O)N[C@@H](CC(C)C)C(=O)N[C@H](C(=O)N[C@@H](Cc1ccccc1)C(=O)O)[C@@H](C)O
HLA-A*2402
  IC50: 204 nM
HLA-A*2301
  IC50: 11 nM
HLA-A*0101
  IC50: 85300 nM
HLA-A*3002
  IC50: 75100 nM
HLA-A*2902
  IC50: 95 nM

## AAAANAAAM
H-2 Db
  IC50: 23 nM

## ASNENMDAM
H-2 Db
  IC50: 28 nM

## CMANNSHHYI
H-2 Db
  IC50: 220 nM

## CSANNSHHYM
H-2 Db
  IC50: 42 nM

## ELDSALEIPY
HLA-A*0101
  IC50: 38 nM
HLA-A*3002
  IC50: 38300 nM
HLA-A*2902
  IC50: 82200 nM

## ETRHYNYSLY
HLA-A*0101
  IC50: 445 nM
HLA-A*3002
  IC50: 29 nM
HLA-A*2902
  IC50: 5460 nM

## ETSSALEIPY
HLA-A*0101
  IC50: 19 nM
HLA-A*3002
  IC50: 7140 nM
HLA-A*2902
  IC50: 12000 nM

## EYDHYCYSLY
HLA-A*0101
  IC50: 110000 nM
HLA-A*3002
  IC50: 77 nM
HLA-A*2902
  IC50: 799 nM

## FAPGYNPAL [FAPGYNPAL]
H-2 Db
  IC50: 2 nM

## FQAAESNERY
HLA-A*0101
  IC50: 8960 nM
HLA-A*3002; [1]
  IC50: 372 nM
HLA-A*2902; [2]
  IC50: 1780 nM
